Laboratory results taken from patent US10618914B2 (UNIVERSITY OF PITTSBURGH—OF THE COMMONWEALTH SYSTEM OF …, priority 2015, dated 2020).
Where two headings read alike, the source gives them in different places.

Experiments:
Type in all cases: cell-based
[1] = test system: STAT1; assay: STAT1 assay (selectivity counter-screen)
[2] = test system: STAT3; assay: HCS STAT3 assay
[3] = test system: Cal33 cells; assay: Cal33 growth inhibition; conditions: for GI50: Table 5, * average of 2 experiments; for IC50: read-out: Cal33 (IC50)
[4] = Table 4, read-out: STAT3 IC50 (converted)
[5] = Table 5, * average of 2 experiments, read-out: STAT3 IC50 (converted)
[6] = Table 5, * average of 2 experiments
[7] = Table 2, read-out: STAT3 (IC50)
[8] = FIG. 3, read-out: STAT3 potency (IC50)

Row | IC50 [2, 7] | SMILES | IC50 ([3]; Table 2) | further results
1 |  | Clc1ccc(C2=Nn3c(nnc3-c3cc(-c4ccccc4)n[nH]3)SC2)cc1Cl [1b] |  | IC50 ([1]; Table 4): > 50 µM
2 |  | Clc1ccc(C2=Nn3c(nnc3-c3[nH]nc4c3CCC4)SC2)cc1 [2a] |  | IC50 ([1]; Table 4): > 50 µM
3 |  | Clc1cccc(C2=Nn3c(nnc3-c3[nH]nc4c3CCC4)SC2)c1 [6a] |  | IC50 ([1]; Table 4): > 50 µM
4 |  | Clc1cccc(C2=Nn3c(nnc3-c3cc(-c4ccccc4)n[nH]3)SC2)c1 [6b] |  | IC50 [2, 4]: 5.6 µM; IC50 ([1]; Table 4): 45.9 µM
5 |  | c1ccc(C2=Nn3c(nnc3-c3[nH]nc4c3CCC4)SC2)cc1 [7a] |  | IC50 [2, 4]: 21.2 ± 23.5 µM; IC50 ([1]; Table 4): > 50 µM
6 |  | c1ccc(C2=Nn3c(nnc3-c3cc(-c4ccccc4)n[nH]3)SC2)cc1 [7b] |  | IC50 [2, 4]: 27 µM; IC50 ([1]; Table 4): > 50 µM
7 |  | c1cc(C2=Nn3c(nnc3-c3[nH]nc4c3CCC4)SC2)ccn1 [9a] |  | IC50 [2, 4]: > 50 µM; IC50 ([1]; Table 4): > 50 µM
8 |  | c1ccc(-c2cc(-c3nnc4n3N=C(c3ccncc3)CS4)[nH]n2)cc1 [9b] |  | IC50 [2, 4]: > 50 µM; IC50 ([1]; Table 4): > 50 µM
9 |  | Clc1ccc(C2=Nn3c(nnc3-c3[nH]nc4c3CCC4)SC2)s1 [10a] |  | IC50 ([1]; Table 4): > 50 µM
10 |  | Clc1ccc(C2=Nn3c(nnc3-c3cc(-c4ccccc4)n[nH]3)SC2)s1 [10b] |  | IC50 [2, 4]: > 50 µM; IC50 ([1]; Table 4): > 50 µM
11 |  | C1=Nn2c(nnc2-c2[nH]nc3c2CCC3)SC1 [11a] |  | IC50 [2, 4]: > 50 µM; IC50 ([1]; Table 4): > 50 µM
12 |  | C1=Nn2c(nnc2-c2cc(-c3ccccc3)n[nH]2)SC1 [11b] |  | IC50 [2, 4]: > 50 µM; IC50 ([1]; Table 4): > 50 µM
13 |  | CC1=Nn2c(nnc2-c2[nH]nc3c2CCC3)SC1 [12a] |  | IC50 [2, 4]: > 50 µM; IC50 ([1]; Table 4): > 50 µM
14 |  | CC1=Nn2c(nnc2-c2cc(-c3ccccc3)n[nH]2)SC1 [12b] |  | IC50 [2, 4]: > 50 µM; IC50 ([1]; Table 4): > 50 µM
15 |  | C1CCC(C2=Nn3c(nnc3-c3[nH]nc4c3CCC4)SC2)CC1 [13a] |  | IC50 [2, 4]: > 30 µM; IC50 ([1]; Table 4): > 50 µM
16 |  | c1ccc(-c2cc(-c3nnc4n3N=C(C3CCCCC3)CS4)[nH]n2)cc1 [13b] |  | IC50 [2, 4]: > 50 µM; IC50 ([1]; Table 4): > 50 µM
17 |  | CC1Sc2nnc(-c3[nH]nc4c3CCC4)n2N=C1c1ccc(Cl)c(Cl)c1 (centres unmarked) [Cmpd 19] |  | IC50 [2, 5]: 8.2 ± 2.2 µM; IC50 [1, 6]: > 50 µM; GI50 [3]: 1.9 ± 1.2 µM
18 |  | COc1ccc(C2=Nn3c(nnc3-c3[nH]nc4c3CCC4)SC2C)cc1 (centres unmarked) [Cmpd 20] |  | IC50 [2, 5]: 9.1 µM; IC50 [1, 6]: > 50 µM; GI50 [3]: 0.2 µM
19 |  | COc1ccc(C2=Nn3c(nnc3-c3[nH]nc4c3CCC4)SC2C(C)C)cc1 (centres unmarked) [Cmpd 26] |  | IC50 [1, 6]: > 50 µM; GI50 [3]: 0.4 ± 0.1 µM
20 |  | CCC(C)C1Sc2nnc(-c3cc(-c4ccccc4)n[nH]3)n2N=C1c1ccc(OC)cc1 (centres unmarked) [Cmpd 28] |  | IC50 [1, 6]: > 50 µM; GI50 [3]: 0.5 µM
21 | 34.7 µM | COc1ccc(C2=Nn3c(nnc3-c3nn(C(=O)OC(C)(C)C)c4c3CCC4)SC2C)cc1 (centres unmarked) [compound 10422] | 0.38 µM | 
22 | 17.9 µM | COC(=O)CC1Sc2nnc(-c3cc(-c4ccccc4)n[nH]3)n2N=C1c1ccccc1 (centres unmarked) [compound 10423] | 37.9 µM | 
23 | 9.9 µM | COc1ccc(C2=Nn3c(nnc3-c3cc(-c4ccccc4)n[nH]3)SC2CC(=O)N(C)C)cc1 (centres unmarked) [compound 10425] | 29.3 µM | IC50 [2, 8]: < 10 µM

Row | IC50 [2, 7] | SMILES | IC50 ([3]; Table 2) | further results
24 | 9.1 µM | COc1ccc(C2=Nn3c(nnc3-c3cc(-c4ccccc4)n[nH]3)SC2CC(=O)N2CCCC2)cc1 (centres unmarked) [compound 10426] | 20.5 µM | IC50 [2, 8]: < 10 µM
25 | 11.6 µM | COC(=O)CC1Sc2nnc(-c3cc(-c4ccccc4)n[nH]3)n2N=C1c1ccc(OC)cc1 (centres unmarked) [compound 10427] | 34.5 µM | 
26 | 33.9 µM | COc1ccc(C2=Nn3c(nnc3-c3[nH]nc4c3CSC4)SC2C)cc1 (centres unmarked) [compound 10435] | 0.63 µM | 
27 | 25.3 µM | COC(=O)Cn1nc(-c2nnc3n2N=C(c2ccc(OC)cc2)C(C)S3)c2c1CCC2 (centres unmarked) [compound 10437] | 2.8 µM | 
28 | 34.1 µM | COc1ccc(C2=Nn3c(nnc3-c3nn(CC(=O)OC(C)(C)C)c4c3CCC4)SC2C)cc1 (centres unmarked) [compound 10438] | 49.6 µM | 
29 | 7.6 µM | COc1ccc(C2=Nn3c(nnc3-c3nn(Cc4ccccc4)c4c3CCC4)SC2C)cc1 (centres unmarked) [compound 10439] | 1.7 µM | 
30 | 15.5 µM | CCOC(=O)CC1Sc2nnc(-c3cc(-c4ccccc4)n[nH]3)n2N=C1c1ccc(OC)cc1 (centres unmarked) [compound 10448] | 13.6 µM | 
31 | 22.7 µM | CC(=O)n1nc(-c2nnc3n2N=C(c2ccc(Cl)c(Cl)c2)C(C)S3)c2c1CCC2 (centres unmarked) [compound 10458] | 4.5 µM | 
32 | 7.8 µM | CC1Sc2nnc(-c3nn(C)c4c3CCC4)n2N=C1c1ccc(Cl)c(Cl)c1 (centres unmarked) [compound 10469] | 3.1 µM | 
33 | 24.4 µM | CC1Sc2nnc(-c3[nH]nc4c3CCC4)n2N=C1c1ccc(C(F)(F)F)cc1 (centres unmarked) [compound 10470] | 1.4 µM | 
34 | 40.1 µM | COc1cccc(C2=Nn3c(nnc3-c3[nH]nc4c3CCC4)SC2C)c1 (centres unmarked) [compound 10471] | 3.9 µM | 
35 | 41.1 µM | Cc1ccc(C2=Nn3c(nnc3-c3[nH]nc4c3CCC4)SC2C)cc1 (centres unmarked) [compound 10472] | 0.18 µM | 
36 | 14.1 µM | Cc1ccc(C2=Nn3c(nnc3-c3cc(-c4ccccc4)n[nH]3)SC2C)cc1 (centres unmarked) [compound 10473] | 12 µM | 
37 | 24.2 µM | CC1Sc2nnc(-c3cc(-c4ccccc4)n[nH]3)n2N=C1c1ccc(OC(F)(F)F)cc1 (centres unmarked) [compound 10474] | 50 µM | 
38 | 7.1 µM | COc1cccc(C2=Nn3c(nnc3-c3cc(-c4ccccc4)n[nH]3)SC2C)c1 (centres unmarked) [compound 10475] | 12.4 µM | 
39 | 18.6 µM | CC1Sc2nnc(-c3[nH]nc4c3CCC4)n2N=C1c1ccc(Br)cc1 (centres unmarked) [compound 10476] | 0.79 µM | 
40 | 31 µM | CC1Sc2nnc(-c3nn(Cc4ccc(OC(F)(F)F)cc4)c4c3CCC4)n2N=C1c1ccc(Cl)c(Cl)c1 (centres unmarked) [compound 10477] | 34.3 µM | 
41 | 35.9 µM | CC1Sc2nnc(-c3cc(-c4ccccc4)n[nH]3)n2N=C1c1ccc(C(F)(F)F)cc1 (centres unmarked) [compound 10478] | 50 µM | 
42 | 7.9 µM | COc1ccc(C2=Nn3c(nnc3-c3cc(-c4ccccc4)n(C(C)=O)n3)SC2C)cc1 (centres unmarked) [compound 10479] | 38.1 µM | 
43 | 6.3 µM | COc1ccc(C2=Nn3c(nnc3-c3cc(-c4ccccc4)nn3C(C)=O)SC2C)cc1 (centres unmarked) [compound 10480] | 30.4 µM | 
44 | 5.9 µM | CC1Sc2nnc(-c3nn(Cc4ccccc4)c4c3CCC4)n2N=C1c1ccc(Cl)c(Cl)c1 (centres unmarked) [compound 10491] | 17.4 µM | 
45 | 25.1 µM | COc1ccc(C2=Nn3c(nnc3-c3[nH]nc4c3CCC4)SC2C)cc1OC (centres unmarked) [compound 10494] | 5.7 µM | 
46 | 7.6 µM | COc1ccc(C2=Nn3c(nnc3-c3cc(-c4ccccc4)n[nH]3)SC2C)cc1OC (centres unmarked) [compound 10495] | 13.1 µM | 

Row | IC50 [2, 7] | SMILES | IC50 ([3]; Table 2) | further results
47 | 47.1 µM | CC1Sc2nnc(-c3[nH]nc4c3CCC4)n2N=C1c1ccc(F)c(F)c1 (centres unmarked) [compound 10510] | 50 µM | 
48 | 7.6 µM | COc1ccc(C2=Nn3c(nnc3-c3cc(-c4ccccc4)n[nH]3)SC2C)cc1 (centres unmarked) [compound 10511] | 28 µM | 
49 | 27 µM | COc1ccc(C2=Nn3c(nnc3-c3[nH]nc4c3CN(Cc3ccccc3)C4)SC2C)cc1 (centres unmarked) [compound 10512] | 4.6 µM | 
50 | 6.6 µM | CCN(CC)c1ccc(C2=Nn3c(nnc3-c3[nH]nc4c3CCC4)SC2C)cc1 (centres unmarked) [compound 10521] | 1 µM | 
51 | 39.3 µM | CC1Sc2nnc(-c3cc(-c4ccccc4)n[nH]3)n2N=C1c1ccc(N2CCOCC2)cc1 (centres unmarked) [compound 10522] | 9.6 µM | 
52 | 8.6 µM | CC1Sc2nnc(-c3cc(-c4ccccc4)n[nH]3)n2N=C1c1ccc(F)c(F)c1 (centres unmarked) [compound 10532] | 14.2 µM | 
53 | 26.2 µM | COc1ccc(C2=Nn3c(-c4cc(-c5ccccc5)n[nH]4)nnc3[S+]([O-])C2C)cc1 (centres unmarked) [compound 10534] |  | IC50 ([3]; Homo sapiens, CAL-33, Table 2): 50 µM
54 | 7 µM | COc1cccc(C2=Nn3c(nnc3-c3cc(-c4ccc(Cl)cc4)n[nH]3)SC2C)c1 (centres unmarked) [compound 10535] | 6.3 µM | 
55 | 9.1 µM | COc1cccc(C2=Nn3c(nnc3-c3cc(-c4cccc(Cl)c4)n[nH]3)SC2C)c1 (centres unmarked) [compound 10536] | 9.3 µM | 
56 | 16 µM | CC1Sc2nnc(-c3cc(-c4ccc(Cl)cc4)n[nH]3)n2N=C1c1ccc(Cl)c(Cl)c1 (centres unmarked) [compound 10537] | 7.6 µM | 
57 | 32.2 µM | CC1Sc2nnc(-c3cc(-c4cccc(Cl)c4)n[nH]3)n2N=C1c1ccc(Cl)c(Cl)c1 (centres unmarked) [compound 10538] | 13.7 µM | 
58 | 8.7 µM | COc1ccc(C2=Nn3c(nnc3-c3cc(-c4cccc(Cl)c4)n[nH]3)SC2C)cc1 (centres unmarked) [compound 10539] | 12.7 µM | 
59 | 4.7 µM | COc1ccc(C2=Nn3c(nnc3-c3cc(-c4ccccc4)nn3C)SC2C)cc1 (centres unmarked) [compound 10540] | 1.3 µM | 
60 | 6.5 µM | COc1ccc(C2=Nn3c(nnc3-c3cc(-c4ccccc4)n(C)n3)SC2C)cc1 (centres unmarked) [compound 10542] | 15.1 µM | 
61 | 4.8 µM | CC1Sc2nnc(-c3cc(-c4ccccc4)n(C)n3)n2N=C1c1ccc(Cl)c(Cl)c1 (centres unmarked) [compound 10543] | 35 µM | 
62 | 7.3 µM | COc1ccc(C2=Nn3c(nnc3-c3n[nH]c(-c4ccc(Cl)cc4)c3C)SC2C)cc1 (centres unmarked) [compound 10547] | 1.3 µM | 
63 | 8.3 µM | COc1ccc(C2=Nn3c(nnc3-c3cc(-c4ccccc4)n(C)n3)SC2C(C)C)cc1 (centres unmarked) [compound 10554] | 19.1 µM | 
64 | 3.7 µM | CCN(CC)c1ccc(C2=Nn3c(nnc3-c3cc(-c4ccccc4)n(C)n3)SC2C)cc1 (centres unmarked) [compound 10555] | 10.5 µM | 
65 | 27.3 µM | CC(C)C1Sc2nnc(-c3cc(-c4ccccc4)n(C)n3)n2N=C1c1ccc(Cl)c(Cl)c1 (centres unmarked) [compound 10556] | 48.6 µM | 
66 | 5.7 µM | CCN(CC)c1ccc(C2=Nn3c(nnc3-c3cc(-c4ccccc4)nn3C)SC2C)cc1 (centres unmarked) [compound 10559] | 27.5 µM | 
67 | 12.2 µM | CC(C)C1Sc2nnc(-c3cc(-c4ccccc4)n(C)n3)n2N=C1c1ccccc1 (centres unmarked) [compound 10562] | 50 µM | 
